Drawing on PubChem BioAssay (NCI), this text covers TGI for eleven compounds.

A word on the TGI: it is the concentration at which net growth stops. A high value points to less potent growth arrest.

Test systems include SW-620 colon; HL-60(TB) leukemia; SF-268 CNS; BT-549 breast; HCT-15 colon; EKVX NSCLC; 786-0 renal; HT29 colon; SF-295 CNS; OVCAR-3 ovarian; SN12C renal; CAKI-1 renal.
What all share (experiment): DTP human tumour cell line panel, 48 h

Structures are written as SMILES.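 Tested at 5 concentrations; 48 h exposure; 96-well plates; endpoints linearly interpolated, else capped at highest concentration. TGI: concentration producing complete growth inhibition.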

Turning to `CN(CCNC(=O)c1c[nH]c2c1Cc1ccccc1-2)CCNC(=O)c1c[nH]c2c1Cc1ccccc1-2`, the total growth inhibition concentration (TGI) in the assay with SW-620 colon is greater than 100 µM; in the assay with HL-60(TB) leukemia it was 77.2 µM; in the assay on SF-268 CNS it was greater than 100 µM; in the assay with BT-549 breast it was greater than 100 µM; with HCT-15 colon, greater than 100 µM; in the assay with EKVX NSCLC it was greater than 100 µM. In addition, the TGI was 44.8 µM with 786-0 renal; greater than 100 µM in the assay with HT29 colon; greater than 100 µM in the assay with SF-295 CNS; 73.7 µM in the assay on OVCAR-3 ovarian; greater than 100 µM in the assay on SN12C renal; greater than 100 µM in the assay on CAKI-1 renal.

As for `CCC(C)C1=C(O)[N+]2([O-])Oc3ccc(-c4c(O)c(O)c(-c5ccc(OC(C)=O)cc5)c(OC(C)=O)c4OC(C)=O)cc3OC2(C(C)CC)C(=O)N1O` (stereo not given), the concentration for total growth inhibition (TGI) with SW-620 colon, with HL-60(TB) leukemia, in the assay with SF-268 CNS, with BT-549 breast, in the assay on HCT-15 colon and in the assay with EKVX NSCLC was greater than 50 µM in each case. The TGI with 786-0 renal, in the assay with HT29 colon, in the assay on SF-295 CNS, in the assay with OVCAR-3 ovarian, in the assay with SN12C renal and with CAKI-1 renal was greater than 50 µM in each case.

With `CC(C)=CC[C@]12CCN(C)[C@H]1N(S(=O)(=O)c1ccccc1)c1ccccc12`, the TGI is greater than 100 µM with SW-620 colon; greater than 74.6 µM in the assay on HL-60(TB) leukemia; greater than 100 µM with SF-268 CNS; greater than 100 µM in the assay with BT-549 breast; greater than 100 µM in the assay on HCT-15 colon; greater than 63.9 µM in the assay with EKVX NSCLC. Also, the TGI in the assay on 786-0 renal was greater than 90.9 µM; in the assay with HT29 colon, greater than 100 µM; in the assay on SF-295 CNS, greater than 100 µM; in the assay on OVCAR-3 ovarian, greater than 74.4 µM; in the assay on SN12C renal it was greater than 100 µM; with CAKI-1 renal, greater than 100 µM.

Regarding `Cc1ccc(C2(c3ccc(F)cc3)OC(=O)c3ccccc32)c(O)c1` (stereo not given), the concentration for total growth inhibition (TGI) with SW-620 colon came to 30.6 µM; with HL-60(TB) leukemia, 41.9 µM; in the assay with SF-268 CNS, 86.7 µM; with BT-549 breast, 44.6 µM; in the assay with HCT-15 colon, 32.7 µM; in the assay with EKVX NSCLC it was 92.1 µM. For the same compound, the TGI with 786-0 renal was 32.1 µM; in the assay with HT29 colon, greater than 100 µM; in the assay on SF-295 CNS, 24.5 µM; in the assay on OVCAR-3 ovarian, 17.9 µM; with SN12C renal, 27.9 µM; in the assay with CAKI-1 renal, 24.9 µM.

For the compound `COc1ccccc1C(=O)NCC1CCCN2CCCCC12` (stereo not given), the TGI in the assay on SW-620 colon, with HL-60(TB) leukemia, with SF-268 CNS, in the assay on BT-549 breast, in the assay with HCT-15 colon and in the assay on EKVX NSCLC was greater than 100 µM each time. For the same compound, the concentration for total growth inhibition (TGI) in the assay with 786-0 renal, in the assay with HT29 colon, with SF-295 CNS, in the assay with OVCAR-3 ovarian, in the assay with SN12C renal and with CAKI-1 renal was greater than 100 µM throughout.

As to `Cc1ccc2c(c1)nc1n2C(N)=Nc2ccccc2S1`, the TGI is greater than 100 µM with SW-620 colon; 6.86 µM in the assay with HL-60(TB) leukemia; greater than 100 µM in the assay with SF-268 CNS; greater than 100 µM in the assay on BT-549 breast; greater than 100 µM in the assay on HCT-15 colon; greater than 100 µM in the assay with EKVX NSCLC. The TGI in the assay on 786-0 renal, in the assay with HT29 colon, with SF-295 CNS, with OVCAR-3 ovarian, in the assay with SN12C renal and in the assay on CAKI-1 renal was greater than 100 µM throughout.

As to `O=C1CN(c2cccc(Cl)c2)C(=O)CN1NCNN1CC(=O)N(c2cccc(Cl)c2)CC1=O`, the concentration for total growth inhibition (TGI) in the assay on SW-620 colon, in the assay on HL-60(TB) leukemia, with SF-268 CNS, with BT-549 breast, with HCT-15 colon and in the assay with EKVX NSCLC was greater than 100 µM in each case. For the same compound, the concentration for total growth inhibition (TGI) with 786-0 renal, in the assay on HT29 colon, in the assay with SF-295 CNS, in the assay with OVCAR-3 ovarian, in the assay on SN12C renal and in the assay with CAKI-1 renal was greater than 100 µM in each case.

`N/C1=C/C(=O)NC(=O)c2c(c3ccccc3oc2=O)C1`: the TGI with SW-620 colon, in the assay on HL-60(TB) leukemia, in the assay on SF-268 CNS, in the assay on BT-549 breast, in the assay on HCT-15 colon and with EKVX NSCLC was greater than 100 µM throughout. The total growth inhibition concentration (TGI) in the assay with 786-0 renal, in the assay with HT29 colon, in the assay with OVCAR-3 ovarian, in the assay on SN12C renal and with CAKI-1 renal was greater than 100 µM each time.

As to `Cn1c(=O)c2c(nc3sc4ccccc4c(=O)n32)n(C)c1=O`, the TGI in the assay on SW-620 colon, in the assay on HL-60(TB) leukemia, with SF-268 CNS, with BT-549 breast, in the assay on HCT-15 colon and in the assay on EKVX NSCLC was greater than 100 µM each time. The TGI in the assay on 786-0 renal, in the assay on HT29 colon, in the assay on SF-295 CNS, with OVCAR-3 ovarian, with SN12C renal and in the assay with CAKI-1 renal was greater than 100 µM in each case.

As for `CCOC(=O)C1(C#N)CC1`, the TGI in the assay on SW-620 colon, in the assay on HL-60(TB) leukemia, in the assay with SF-268 CNS, with BT-549 breast, in the assay on HCT-15 colon and in the assay on EKVX NSCLC was greater than 100 µM throughout. Also, the concentration for total growth inhibition (TGI) in the assay on 786-0 renal, with HT29 colon, in the assay with SF-295 CNS, in the assay with SN12C renal and in the assay with CAKI-1 renal was greater than 100 µM each time.

As to `COC(=O)Nc1nc2ccc(S(=O)(=O)N3CCOCC3)cc2[nH]1`, the TGI with SW-620 colon, with HL-60(TB) leukemia, in the assay on SF-268 CNS, in the assay with BT-549 breast, in the assay on HCT-15 colon and with EKVX NSCLC was greater than 100 µM each time. Also, the TGI in the assay on 786-0 renal, in the assay on HT29 colon, in the assay on SF-295 CNS, in the assay on OVCAR-3 ovarian, with SN12C renal and in the assay with CAKI-1 renal was greater than 100 µM each time.
